Measurements from patent US6946442B2, “Method of hastening cervical ripening” (priority 1994, dated 2005).

Key:
[1] = system: rat cervix; test: Tensile properties (stress-strain, extensibility) of isolated cervix after intravaginal treatment of pregnant rats; format: in vivo, Sprague-Dawley rats; settings: for cervical extensibility: 100 ng/ml gel intravaginally
Description: Control animals received applications of gel only.
The tensile properties of the isolated cervix were evaluated using the Shimadzu EZ-Test instrumentation using a test regimen which mimicked the conditions during labour. Briefly, the cervix was suspended between two hooks by means of threads passed through the cervical canal. It was then placed in a 40 ml tissue bath containing 10 mM HEPES/PBS solution (pH=7.4) maintained at 25° C. […] Each cervix was allowed 30 min. to equilibrate. The lower hook was fixed while the upper hook was movable, to simultaneously record displacement and force with a sample rate of 20 Hz. […] The upper hook was moved until a small resistance of the tissue (20 mN) was recorded after which the tester automatically moved the upper hook to incrementally stretch the cervix in steps of 0.4 mm. at 1 min. intervals. Between subsequent stretches the hook rested for 1 min. allowing the cervix to accommodate. During the accommodation periods the cervix reverted back to a relaxed state, therefore diminishing the opposed resistance and thus the tension recorded by the tester. FIG. 15 illustrates a typical stress-strain plot of a rat cervix. […] At YP permanent morphological changes and breaks in the material begin to occur. Break-point (BP) is the moment where the tissue completely breaks and the load abruptly falls toward zero. To quantify the elastic behaviour of the cervix (cervical resistance), straight lines are fitted through the linear portion of the force versus displacement curve. The slopes of the upper, lower and mid-point regression lines that are related to Young's modulus for elastic materials were used to best characterise the tensile properties of the sample. A larger slope indicates a higher resistance to dilation, therefore lower extensibility.

[2] = system: Connexin-43; test: Western blot, Connexin-43 expression in non-pregnant cervical explants; format: cell-based, human
Description: (§1) Human uterine non-pregnant cervix tissue was obtained from non-malignant hysterectomies. The samples were maintained in phenol red free culture media DMEM supplemented with penicillin (1%), streptomycin (1%) and L-Glutamine (1%) and transferred to the laboratory on ice. The biopsies were washed in ice-cold saline solution then cut into small sections 1 to 2 mm and incubated in the above culture medium in 60×15 mm petri dishes at 37° C. in 5% CO2/95% air. Progesterone (P2) was added to the culture medium at concentrations of 10^−4, 10^−6 and 10^−8 M. 17−β Estradiol (E2) was added to the culture medium either alone at concentrations of 10^−6, 10^−7 and 10^−8 M or for 2 hours to prime the cervical explants at a concentration of 10^−7 M, followed by addition of Progesterone (P2) at concentrations ranging from 10^31 4 to 10^−8 M. The effect of VEGF165 (1, 10, 50, 100, 200 ng/ml) and PAF (10^−6−10^−10 M) in the non-pregnant cervical explants was also investigated. This culture system was chosen because it allows study of the intact tissues in their own matrix and avoids the potentially artefact-producing procedures of cell dispersion and culture. In this system, the cells remain intact for at least 5 days.

[3] = system: Connexin-43; settings: non-pregnant myometrial explants, FIG. 11A
Description: Cervical tissue, after having been stimulated with VEGF165 or PAF for 24 hours or with the ovarian steroid hormones, 17β-estradiol (E2) and progesterone (P2), for 48 hours, was washed twice in ice-cold PBS and homogenised in ice-cold, high salt lysis buffer (containing 0.4 M KCl, 20 mM HEPES, 1 mM DTT, 20% glycerol, 0.5 mg/ml Bacitracin, 40 μg/ml PMSF, 5 μg/ml Peptastin, 5 μg/ml Leupeptin). Homogenates were centrifuged at 12,000 revolutions/min for 15 minutes and the supernatants containing extracted protein were collected. The culture medium used to incubate the tissue with or without E2, P2 or E2+P2 was also collected, centrifuged. To the supernatant, 3 volumes of ethanol were added and stored at −70° C. for at least 5 hours. Then, the culture medium/ethanol suspension was centrifuged at 10,000 rpm for 10 min and the pellet containing the protein was resuspended in lysis buffer. Total protein, extracted from both tissue and medium, was quantified with the Bio-Rad protein assay, and 500 ng of protein from each sample was diluted in loading buffer (containing 0.02 M Tris-HCl, 0.002 M EDTA, 2% SDS, 10% mercaptoethanol, 20% glycerol, bromophenol blue). […] This is a highly sensitive and quantitative assay for detecting proteins immobilised on membranes.

[4] = system: VEGF165 mRNA; test: Northern blot hybridisation, VEGF165 mRNA in non-pregnant cervical tissue explants; format: cell-based, human; settings: 48 hours
Description: as §1, with “days. RNA (40 μg/lane) was loaded onto a 1.2% agarose/formaldehyde gel, electrophoretically separated, transferred onto Hybond nylon membranes, and immobilised by exposure to U.V. light for 5 min. Membranes were prehybridized at 42° C. for 8 hours in a solution containing 50% formamide, 5×SSC, 5×Denhardt's solution, 0.5% SDS and salmon sperm DNA at 150 μg/ml. The VEGF165 cDNA was labelled with [α-^32P]dCTP by random-primer extension. 18s oligonucleotide probe labelled by T4 polynucleotide kinase with […] was used to determine the relative amount of RNA loaded in each lane by rehybridizing the blots that have previously been probed with VEGF165. Hybridisation was done under the same conditions with the labelled probe for 18 hours at 42° C. […]” for “days.”

[5] = system: VEGF protein expression; test: Western blot analysis, VEGF protein expression in non-pregnant cervical explants and culture medium; format: cell-based, human
Description: as §1, with “10^−7 and 10^−8 M or for 2 hours to prime the cervical explants at a concentration of 10^−7” left out, “culture.” for “culture. In this system, the cells remain intact for at least 5 days.”
Cervical tissue, after having been stimulated with VEGF165 or PAF for 24 hours or with the ovarian steroid hormones, 17β-estradiol (E2) and progesterone (P2), for 48 hours, was washed twice in ice-cold PBS and homogenised in ice-cold, high salt lysis buffer (containing 0.4 M KCl, 20 mM HEPES, 1 mM DTT, 20% glycerol, 0.5 mg/ml Bacitracin, 40 μg/ml PMSF, 5 μg/ml Peptastin, 5 μg/ml Leupeptin). Homogenates were centrifuged at 12,000 revolutions/min for 15 minutes and the supernatants containing extracted protein were collected. The culture medium used to incubate the tissue with or without E2, P2 or E2+P2 was also collected, centrifuged. To the supernatant, 3 volumes of ethanol were added and stored at −70° C. for at least 5 hours. Then, the culture medium/ethanol suspension was centrifuged at 10,000 rpm for 10 min and the pellet containing the protein was resuspended in lysis buffer. Total protein, extracted from both tissue and medium, was quantified with the Bio-Rad protein assay, and 500 ng of protein from each sample was diluted in loading buffer (containing 0.02 M Tris-HCl, 0.002 M EDTA, 2% SDS, 10% mercaptoethanol, 20% glycerol, bromophenol blue). Samples were subjected to electrophoresis in a 12% polyacrylamide gel with 5% stacking gel and transferred overnight at 36V onto a nitrocellulose membrane. The membrane was blocked at RT with 1% skimmed milk in Tris-buffered saline solution before incubation with an antiserum (diluted 1:500) directed against the rabbit VEGF165 at 4° C. After a 15 min. wash and 2×5 min. washes with Tris-buffered saline solution at room temperature (RT), the membrane was incubated in an anti-rabbit secondary Ab conjugated to alkaline phosphatase. In case of Western blotting experiments for Connexin-43, the membrane was blocked overnight at 4° C. in blocking buffer (1% BSA in 10 mM Tris pH 7.5, 100 mM NaCl, 0.1% Tween 20), before incubation with a monoclonal antibody directed against Connexin-43 again overnight at 4° C. After a 6×5 min. washes with Tris-buffered saline solution, the membrane was incubated in a mouse secondary Ab conjugated to alkaline phosphatase. A chemiluminescence system (ECL-Amersham) was used to visualise the presence of VEGF165, Connexin-43 or Flt-1 protein. This is a highly sensitive and quantitative assay for detecting proteins immobilised on membranes.
Cervical tissue explants in culture medium were exposed to various concentrations of the ovarian steroid hormones, 17β-estradiol (E2) and progesterone (P2), for 48 hours, followed by extraction of protein from the tissue as well as the culture medium.

[6] = system: pregnant rats; test: Preterm delivery induced by progesterone receptor antagonist in pregnant rats; format: in vivo, Sprague-Dawley rats; settings: 10 mg s.c. on day 19, in 24 h
Description: Treatments (Protocols A and B): Mouse recombinant VEGF164 (the murine equivalent of human VEGF165) was dissolved at a concentration of 10 and 100 ng/ml gel. Control animals received applications of gel only. Some animals were injected on day 19 s.c. with 10 mg progesterone receptor antagonist RU486, a protocol which induces in 24 h preterm delivery in 80% of animals.

## VEGF
[1]; 10 ng/ml gel intravaginally, protocol B (day 16 to day 20), significant only when applied later in pregnancy
  slope of stress-strain curve: statistically significant decrease
[1]; protocol A (day 12 to day 16)
  cervical extensibility: significantly increased
[1]; protocol B (day 16 to day 20)
  cervical extensibility: significantly increased
[2]; non-pregnant cervical explants, FIG. 11B
  connexin-43 expression in cervical explants: up-regulation
[3]
  connexin-43 expression in myometrial explants: up-regulation

## C[C@]12CC[C@@H]3c4ccc(O)cc4CC[C@H]3[C@@H]1CC[C@@H]2O [17β-estradiol]
[4]; 17β-estradiol alone, non-pregnant cervical explants
  VEGF mRNA compared to Control: up-regulates
[5]; 17β-estradiol, 48 hours, culture medium
  secreted forms of VEGF in the culture medium: up-regulates
[5]; 17β-estradiol, 48 hours, tissue
  VEGF protein in the tissue itself: no effect

## platelet-activating factor [PAF]
[2]; PAF at various concentrations, non-pregnant cervix, FIG. 12
  connexin-43 expression in cervix: up-regulation
[5]; PAF at various concentrations, 24 hours
  VEGF expression in non-pregnant cervix: increases

## CC#C[C@]1(O)CC[C@H]2[C@@H]3CCC4=CC(=O)CCC4=C3[C@@H](c3ccc(N(C)C)cc3)C[C@@]21C [RU486]
[6]
  preterm delivery: 80 % of animals

## CC(=O)[C@H]1CC[C@H]2[C@@H]3CCC4=CC(=O)CC[C@]4(C)[C@H]3CC[C@]12C [progesterone]
[4]; progesterone at 10^−4 M in the presence of 10^−7 M 17β-estradiol
  VEGF mRNA: down-regulated
[4]; progesterone at 10^−4 M
  VEGF mRNA: down-regulated
[5]; explants primed with 17β-estradiol for 4 hours, then increasing concentration of progesterone, culture medium
  VEGF protein expression in the culture medium: dose-dependent increase
[5]; explants primed with 17β-estradiol for 4 hours, then increasing concentration of progesterone, tissue
  VEGF protein expression in the tissue: dose-dependent increase
[5]; progesterone at 10^−4 M, 48 hours, culture medium
  VEGF protein in the culture medium compared with Control: down-regulated
[5]; progesterone at 10^−4 M, 48 hours, tissue
  VEGF protein in the tissue itself compared with Control: down-regulated
